pIC50: −log10 of the molar value.
Columns and labels:
Assay type in all cases: cell-based
[1] = system: Human lung adenocarcinoma cell A549; assay: CCK-8 cell proliferation assay, A549; settings: A549 cells, CCK-8, 24 hrs with drug, OD 450 nm
Method: (§1) The effect of samples on the proliferation of human tumor cells in vitro was determined by CCK-8 cell proliferation assay.
(§2) The cells were assayed through a method including the following steps:
(§3) 1) The cells were digested, counted, and prepared into a cell suspension in a corresponding culture medium (Table 1) (5×10^4 cells/ml for CFPAC-1 and RPMI 8226, and 3.5×10^4 cells/ml for rest cells). The cell suspension was added to each well of a 96-well plate in 100 μl well.
(§4) 2) Then the 96-well plate was incubated for 24 hrs in an incubator at 37° C. and 5% CO2.
(§5) 3) The drug was diluted with the culture medium to the required working concentration. 100 μl of the corresponding drug containing medium was added to each well. A negative control group (added with drug-free culture medium) was also set.
(§6) 4) Then the 96-well plate was incubated for 24 hrs in an incubator at 37° C. and 5% CO2.
(§7) 5) The 96-well plate was stained with CCK-8, and The OD value was determined at λ=450 nm.
(§8) a) 10 μl of CCK-8 was added to each well, and incubated in the incubator for another 2-3 hrs.
(§9) b) The content was mixed uniformly by shaking gently on a shaker for 10 min, and the bubbles in the 96-well plate were removed.
(§10) 6) The inhibition rate in each group was calculated.

[2] = system: Human hepatoma cell HepG2; assay: CCK-8 cell proliferation assay, HepG2; settings: HepG2 cells, CCK-8, 24 hrs with drug, OD 450 nm
Method: as §1, §2, §3, §4, §5, §6, §7, §8, §9, §10

[3] = system: Human esophageal cancer cell TE-1; assay: CCK-8 cell proliferation assay, TE-1; settings: TE-1 cells, CCK-8, 24 hrs with drug, OD 450 nm
Method: as §1, §2, §3, §4, §5, §6, §7, §8, §9, §10

[4] = system: Human gastric cancer cell MKN45; assay: CCK-8 cell proliferation assay, MKN-45; settings: MKN-45 cells, CCK-8, 24 hrs with drug, OD 450 nm
Method: as §1, §2, §3, §4, §5, §6, §7, §8, §9, §10

[5] = system: Human colon cancer cell HCT-116; assay: CCK-8 cell proliferation assay, HCT116; settings: HCT116 cells, CCK-8, 24 hrs with drug, OD 450 nm
Method: as §1, §2, §3, §4, §5, §6, §7, §8, §9, §10

[6] = system: Human multiple myeloma cell RPMI 8226; assay: CCK-8 cell proliferation assay, RPMI8226; settings: RPMI8226 cells, CCK-8, 24 hrs with drug, OD 450 nm
Method: as §1, §2, §3, §4, §5, §6, §7, §8, §9, §10

[7] = system: Human pancreatic cancer cell CFPAC-1; assay: CCK-8 cell proliferation assay, CFPAC-1; settings: CFPAC-1 cells, CCK-8, 24 hrs with drug, OD 450 nm
Method: as §1, §2, §3, §4, §5, §6, §7, §8, §9, §10

SMILES	pIC50 [1]	pIC50 [2]	pIC50 [3]	pIC50 [4]	pIC50 [5]	pIC50 [6]	pIC50 [7]
O=C(NCCCCC[C@H]1CCN(C(=O)c2cccs2)C1)Nc1ccncc1 [BSS-TP039, (S)-1-(5-(1-(2-thienylformyl)pyrrolidin-3-yl)pentyl)-2-(4-pyridinyl)urea]	7.34	7.22	7.14	7.33	7.15	7.42	7.60
O=C(NCCCCC[C@@H]1CCN(C(=O)c2cccs2)C1)Nc1ccncc1 [BSS-TP040, (R)-1-(5-(1-(2-thienylformyl)pyrrolidin-3-yl)pentyl)-2-(4-pyridinyl)urea]	7.37	7.31	7.19	7.51	7.28	7.62	7.54
O=C(NCCCCCCC1CCN(C(=O)c2ccccc2)C1)Nc1ccncc1 (centres unmarked) [BSS-TP101, 1-(6-(1-(benzoyl)pyrrolidin-3-yl)hexyl)-2-(4-pyridinyl)urea]	7.46	7.30	7.19	7.41	7.66	7.68	7.54
COc1cccc(OC)c1C(=O)N1CCC(CCCCCCNC(=O)Nc2ccncc2)C1 (centres unmarked) [BSS-TP102, 1-(6-(1-(2,6-dimethoxybenzoyl)pyrrolidin-3-yl)hexyl)-2-(4-pyridinyl) urea]	7.64	7.46	7.54	7.52	7.57	8.00	7.89
O=C(NCCCCCCC1CCN(C(=O)c2cccs2)C1)Nc1ccncc1 (centres unmarked) [BSS-TP103, 1-(6-(1-(2-thienylformyl)pyrrolidin-3-yl)hexyl)-2-(4-pyridinyl)urea]	7.55	7.37	7.30	7.44	7.06	7.82	7.51
O=C(NCCCCCCC1CCN(C(=O)c2ccc[nH]2)C1)Nc1ccncc1 (centres unmarked) [BSS-TP104, 1-(6-(1-(2-pyrrolylformyl)pyrrolidin-3-yl)hexyl)-2-(4-pyridinyl)urea]	7.48	7.12	7.21	7.34	7.24	7.54	7.48
O=C(NCCCCCCC1CCN(C(=O)c2ccco2)C1)Nc1ccncc1 (centres unmarked) [BSS-TP105, 1-(6-(1-(furoyl)pyrrolidin-3-yl)hexyl)-2-(4-pyridinyl)urea]	7.37	7.21	7.12	7.49	7.28	7.70	7.43
O=C(NCCCCCCC1CCN(C(=O)C2CCCN2)C1)Nc1ccncc1 (centres unmarked) [BSS-TP106, 1-(6-(1-(2-pyrrolidinylformyl)pyrrolidin-3-yl)hexyl)-2-(4-pyridinyl)urea]	7.17	6.92	7.01	7.24	7.18	7.33	7.34
O=C(NCCCCCCC1CCN(C(=O)C2CCCO2)C1)Nc1ccncc1 (centres unmarked) [BSS-TP107, 1-(6-(1-(2-tetrahydrofurylformyl)pyrrolidin-3-yl)hexyl)-2-(4-pyridinyl)urea]	7.26	6.86	7.09	7.28	7.12	7.29	7.24
O=C(NCCCCCCC1CCN(C(=O)C2CCCS2)C1)Nc1ccncc1 (centres unmarked) [BSS-TP108, 1-(6-(1-(2-tetrahydrothienylformyl)pyrrolidin-3-yl)hexyl)-2-(4-pyridinyl)urea]	7.31	7.04	7.14	7.31	7.23	7.49	7.39
O=C(NCCCCCCC1CCN(C(=O)c2ccccc2)C1)Nc1cccnc1 (centres unmarked) [BSS-TP109, 1-(6-(1-(benzoyl)pyrrolidin-3-yl)hexyl)-2-(3-pyridinyl)urea]	7.54	7.15	7.06	7.28	7.33	7.64	7.59

Reference: patent US12291515B2, “Pyrrolidine derivative and use thereof” (Rushi Biotech (Hangzhou) Co., Ltd, priority 2021, dated 2025)
